Like-named read-outs stand apart in the source and are kept apart here.
Legend:
HBV [1] = assay: Anti-HBV assay in HepG2.2.15 cells (HBV DNA by real-time PCR, HBsAg by chemiluminescent enzyme immunoassay in culture supernatant); assay type: cell-based; conditions: Hepatitis B virus, 144 h, 6 days treatment
Method: The anti-HBV activity of compounds 1 to 16 was evaluated as follows by using HepG2.2.15 cells (Proc. Natl. Acad. Sci. USA, 84, 1005-1009, 1987), which are obtained by introducing the HBV genome into hepatoblastoma cell line, HepG2, and persistently produce the virus.
The following was used as a medium: DMEM/F-12,GlutaMAX(manufactured by Invitrogen)+5 μg/mL insulin (manufactured by Wako)+1% penicillin/streptomycin(manufactured by Sigma)+10 mmol/L HEPES(manufactured by Sigma)+50 μmol/L hydrocortisone(manufactured by Sigma)+10% FBS
A mixture of each test compound with dimethyl sulfoxide (DMSO) was added to the medium to obtain a final concentration of DMSO of 1% (v/v), and thus, test solutions containing the test compound in various concentrations were prepared. In addition, a test solution obtained by adding DMSO alone to the medium to obtain a final concentration of 1% (v/v) was prepared as a control without drug.
(1) The HepG2.2.15 cells were suspended in the medium and prepared a cell suspension at 1.5×10^5 cells/mL. The suspension was seeded in a 96-well microtiter plate (100 μL/well) and the plate was incubated in a 5% CO2 incubator at 37° C. for 1 day.
(2) After removing the culture supernatant, the cells were washed twice with PBS(−) (100 μL/well) and then once with the medium (100 μL/well).
(3) Each test solution was added to the plate (100 μL/well), and the plate was incubated in a 5% CO2 incubator at 37° C. for 3 days.
(4) After removing the culture supernatant, the test solution was added to the plate again (100 μL/well) and the plate was incubated in a 5% CO2 incubator at 37° C. for 3 days.
(5) The culture supernatant was collected and treated with a mixture of Buffer AL (manufactured by QIAGEN) and Proteinase K (manufactured by Invitrogen). The amount of HBV DNA in the solution was quantified by real-time PCR. In addition, the amount of HBsAg (hepatitis B surface antigen) in the culture supernatant was quantified by chemiluminescent enzyme immunoassay using a Lumipulse HBsAg-HQ (manufactured by Fujirebio Inc.). The relative viral load (%) of a well with the compound to a well without the compound was calculated. An IC50 of each compound was calculated using the FORECAST function (linear regression method) of Microsoft Excel 2007 by plotting the logarithm of the concentration against the relative viral load as a real number.

HBV [2] = assay: Anti-HBV assay in PXB-cells (fresh human hepatocytes from PXB mouse infected with HBV genotype AeUS); assay type: cell-based, hepatitis B virus (HBV); conditions: 10 μmol/L
Method: The anti-HBV activity of compound 8 was evaluated as follows by using fresh human hepatocyte (The PXB-cells were produced by PhenixBio Co., Ltd.) derived from a PXB mouse (a chimeric mouse with human hepatocyte).
The following was used as a medium:
500 mL DMEM (manufactured by Sigma)+0.25 μg/mL insulin (manufactured by Wako)+1% penicillin/streptomycin. (manufactured by Sigma)+20 mmol/L HEPES (manufactured by Sigma)+15 μg/mL L-proline (manufactured by Sigma)+50 nmol/L dexamethasone (manufactured by Sigma)+5 ng/mL EGF (manufactured by Peprotech)+0.1 mmol/L ascorbic acid 2-phosphate (manufactured by Wako)+10% FBS+2% DMSO
Compound 8 was further added to the medium to prepare a 10 μmol/L test solution.
(1) The PXB-cells seeded at a 2.1×10^5 cells/cm^2 in a 48-well microliter plate were incubated in a 5% CO2 incubator at 37° C. for 5 days.
(2) HBV derived from PXB mouse serum (genotype AeUS) was added to the medium supplemented with 4% PEG-8000. The PXB cells were infected with this solution at about 10 copies/cell (250 μL/well) and the plate was incubated in a 5% CO2 incubator at 37° C. for 1 day.
(3) After the culture supernatant had been removed, the cells were washed three times with DMEM supplemented with 10% FBS and 1% penicillin/streptomycin. The medium was added to the plate (250 μL/well) and the plate was incubated in a 5% CO2 incubator at 37° C. for 1 day.
(4) After removing the culture supernatant, the cells were washed three times with DMEM supplemented with 10% FBS and 1% penicillin/streptomycin. […]
(11) The collected culture supernatant on day 32 post infection was purified using a QIAamp DNA Blood Mini Kit (manufactured by QIAGEN) and the amount of HVB DNA was quantified by real-time PCR. In addition, the amount of HBsAg (hepatitis B surface antigen) in the culture supernatant was quantified by chemiluminescent enzyme immunoassay using a Lumipulse HBsAg-HQ (manufactured by Fujirebio Inc.). The relative viral load (%) of a well with the compound to a well without the compound was calculated.

[3] = HBV DNA in culture supernatant, real-time PCR, read-out: IC50 (μM) HBV-DNA
[4] = HBsAg in culture supernatant, chemiluminescent enzyme immunoassay, read-out: IC50 (μM) HBsAg
[5] = culture supernatant on day 32 post infection, relative to well without compound

| Compound | IC50 (HBV [1]; [3]) | IC50 (HBV [1]; [4]) | relative viral load with respect to the amount of HBV DNA (HBV [2]; [5]) | relative viral load with respect to the amount of HBsAg (HBV [2]; [5]) | anti-HBV activity (HBV [2]; statement in words) |
| --- | --- | --- | --- | --- | --- |
| Cc1cc(O)ccc1-n1cc(C(=O)O)c(=O)cc1C1CCC(Br)C(Br)C1 (centres unmarked) [Compound 13] | 0.49 µM | 1.8 µM | – | – | – |
| O=C(O)c1cn(-c2ccc(F)cc2)c(-c2ccc(N3CCCC3)cc2)cc1=O [Compound 1] | 0.051 µM | 1.1 µM | – | – | – |
| CN(C)c1ccc(-c2cc(=O)c(C(=O)O)cn2-c2cccc(F)c2)cc1 [Compound 3] | 0.86 µM | 5.7 µM | – | – | – |
| COc1ccc(-n2cc(C(=O)O)c(=O)cc2-c2ccc(N(C)C)cc2)c(F)c1 [Compound 12] | 1.4 µM | 4.9 µM | – | – | – |
| CNc1ccc(-c2cc(=O)c(C(=O)O)cn2-c2ccc(F)cc2)cc1 [Compound 16] | 7.9 µM | 35 µM | – | – | – |
| O=C(O)c1cn(-c2ccc(F)cc2F)c(-c2ccc(N3CCCC3)cc2)cc1=O [Compound 4] | 0.088 µM | 2.1 µM | – | – | – |
| CN(C)c1ccc(-c2cc(=O)c(C(=O)O)cn2-c2cc(Cl)c(O)c(Cl)c2)cc1 [Compound 15] | 4.5 µM | 11 µM | – | – | – |
| O=C(O)c1cn(-c2ccc(F)cc2)c(-c2cc3ccccc3s2)cc1=O [Compound 6] | 1.1 µM | 5.8 µM | – | – | – |
| Cc1cc(-n2cc(C(=O)O)c(=O)cc2-c2ccc(N(C)C)cc2)ccc1O [Compound 11] | 0.8 µM | 3.7 µM | – | – | – |
| CN(C)c1ccc(-c2cc(=O)c(C(=O)O)cn2-c2ccccc2F)cc1 [Compound 7] | 1.1 µM | 4.6 µM | – | – | – |
| O=C(O)c1cn(-c2ccc(F)cc2)c(-c2sccc2-c2ccc([N+](=O)[O-])cc2)cc1=O [Compound 2] | 0.16 µM | 0.79 µM | – | – | – |
| COc1ccc(-n2cc(C(=O)O)c(=O)cc2-c2ccc(N(C)C)cc2)cc1 [Compound 5] | 0.33 µM | 4.6 µM | – | – | – |
| CN(C)c1ccc(-c2cc(=O)c(C(=O)O)cn2-c2ccccc2O)cc1 [Compound 10] | 2.1 µM | 6.9 µM | – | – | – |
| O=C(O)c1cn(-c2ccc(F)cc2)c(-c2ccc(-c3cccs3)cc2)cc1=O [Compound 14] | 0.91 µM | 4.2 µM | – | – | – |
| O=C(O)c1cn(-c2ccc(F)cc2F)c(-c2cc3ccccc3s2)cc1=O [Compound 9] | 0.23 µM | 3.6 µM | – | – | – |
| CN(C)c1ccc(-c2cc(=O)c(C(=O)O)cn2-c2ccc3c(c2)OCO3)cc1 [Compound 8] | 0.25 µM | 1.2 µM | 16% | 29% | excellent anti-HBV activity |
